Results reported in ChEMBL document CHEMBL1201862, “PubChem BioAssay data set” (2004).
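Dose response: 5 concentrations. Exposure: 48 h. Format: 96-well plates. Endpoint: linear interpolation; highest concentration if not reached. Abbreviation: GI50, concentration required for 50% inhibition of growth.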 Calls of active or inactive are those of the source. Cut-off read from the data, not from the text of the source: active = GI50 up to about 1.1 µM and inactive = higher.

Key:
Test in all cases: inhibition of tumour cell growth, NCI panel, 48 h
[1] = tested on: U-251
[2] = tested on: KM12
[3] = tested on: NCI-H226
[4] = tested on: HCT-116
[5] = tested on: K562
[6] = tested on: NCI-H23
[7] = tested on: TK-10
[8] = tested on: OVCAR-8
[9] = tested on: 786-0
[10] = tested on: CCRF-CEM
[11] = tested on: HOP-92
[12] = tested on: BT-549
[13] = tested on: MDA-MB-435
[14] = tested on: SF-295
[15] = tested on: A549
[16] = tested on: OVCAR-4
[17] = tested on: UACC-62
[18] = tested on: NCI/ADR-RES
[19] = tested on: SNB-75

With `Cc1ccc2ccccc2c1CSc1nc(N)nc2c1ncn2CC(C)C` the GI50 [1] was 18.2 µM (inactive), the GI50 [2] was 15.2 µM (inactive) and the GI50 [3] was 7.82 µM (inactive). For the same molecule, the GI50 [4] was 9.82 µM (inactive), the GI50 [5] was 6.41 µM (inactive) and the GI50 [6] was 24.4 µM (inactive). The GI50 [7] was 29.6 µM (inactive), the GI50 [8] was 40.4 µM (inactive) and the GI50 [9] was 21.4 µM (inactive). For the same molecule, the GI50 [10] was 6.15 µM (inactive), the GI50 [11] was 17.8 µM (inactive) and the GI50 [12] was 39.4 µM (inactive). The GI50 [13] was 10.3 µM (inactive), the GI50 [14] was 5.86 µM (inactive) and the GI50 [15] was 10.9 µM (inactive). For the same molecule, the GI50 [16] was 11.1 µM (inactive), the GI50 [17] was 26.3 µM (inactive) and the GI50 [18] was 21.8 µM (inactive). For the same molecule, the GI50 [19] was 43.3 µM (inactive).
With `CC(C)c1ccccc1[S+]([O-])c1ccccc1C(C)(C)O` (centres undefined) the GI50 [1] was 18.9 µM (inactive), the GI50 [2] was 30.8 µM (inactive) and the GI50 [3] was 21.3 µM (inactive). For the same molecule, the GI50 [4] was > 100 µM (inactive), the GI50 [5] was 60.4 µM (inactive) and the GI50 [6] was > 100 µM (inactive). For the same molecule, the GI50 [7] was > 100 µM (inactive), the GI50 [8] was > 100 µM (inactive) and the GI50 [9] was > 100 µM (inactive). For the same molecule, the GI50 [10] was > 100 µM (inactive), the GI50 [11] was > 100 µM (inactive) and the GI50 [12] was > 100 µM (inactive). For the same molecule, the GI50 [13] was 39.6 µM (inactive), the GI50 [14] was 21.1 µM (inactive) and the GI50 [15] was 44.2 µM (inactive). The GI50 [16] was > 100 µM (inactive), the GI50 [17] was > 100 µM (inactive) and the GI50 [18] was 64.6 µM (inactive). The GI50 [19] was 32.3 µM (inactive).
For `COc1ccc(/C=C(\C(=C/c2ccc(OC)cc2)[N+](=O)[O-])[N+](=O)[O-])cc1`, the GI50 [1] was 2.58 µM (inactive), the GI50 [2] was 14.6 µM (inactive) and the GI50 [3] was 3.97 µM (inactive). For the same molecule, the GI50 [4] was 10.2 µM (inactive), the GI50 [5] was 3.92 µM (inactive) and the GI50 [6] was 4.46 µM (inactive). The GI50 [7] was 5.71 µM (inactive), the GI50 [8] was 2.03 µM (inactive) and the GI50 [9] was 2.04 µM (inactive). For the same molecule, the GI50 [10] was 0.429 µM (active), the GI50 [11] was 3.84 µM (inactive) and the GI50 [12] was 6.1 µM (inactive). The GI50 [13] was 3.4 µM (inactive), the GI50 [14] was 14.3 µM (inactive) and the GI50 [15] was 22.7 µM (inactive). The GI50 [16] was 12.8 µM (inactive), the GI50 [17] was 2.91 µM (inactive) and the GI50 [18] was 1.93 µM (inactive). The GI50 [19] was 26.1 µM (inactive).
`CCN1CN(c2ccccc2)C2(CCN(CC(CC3OCCO3)c3ccc(F)cc3)CC2)C1=O` (centres undefined) was tested, and the GI50 [1] was 14.9 µM (inactive), the GI50 [2] was 10.7 µM (inactive) and the GI50 [3] was 13.5 µM (inactive). For the same molecule, the GI50 [4] was 3.36 µM (inactive), the GI50 [5] was 32 µM (inactive) and the GI50 [6] was 12.5 µM (inactive). The GI50 [7] was 7.53 µM (inactive), the GI50 [8] was 8.81 µM (inactive) and the GI50 [9] was 8.36 µM (inactive). For the same molecule, the GI50 [10] was 3.65 µM (inactive), the GI50 [11] was 2.13 µM (inactive) and the GI50 [12] was 21.6 µM (inactive). For the same molecule, the GI50 [13] was 14.8 µM (inactive), the GI50 [14] was 5.69 µM (inactive) and the GI50 [15] was 5.24 µM (inactive). For the same molecule, the GI50 [16] was 13.5 µM (inactive), the GI50 [17] was 18.1 µM (inactive) and the GI50 [18] was 10.5 µM (inactive). The GI50 [19] was 35.2 µM (inactive).
`COc1ccc2c(c1)nc1n2C(c2c(F)cccc2F)SC1` (centres undefined) was tested, and the GI50 [1] was 55.7 µM (inactive), the GI50 [2] was 25 µM (inactive) and the GI50 [3] was 62.7 µM (inactive). For the same molecule, the GI50 [4] was 31.5 µM (inactive), the GI50 [5] was 43.8 µM (inactive) and the GI50 [6] was 29 µM (inactive). The GI50 [7] was 94.6 µM (inactive), the GI50 [8] was 83.8 µM (inactive) and the GI50 [9] was 48.2 µM (inactive). The GI50 [10] was 47.5 µM (inactive), the GI50 [11] was 76 µM (inactive) and the GI50 [12] was 59 µM (inactive). For the same molecule, the GI50 [13] was 26.2 µM (inactive), the GI50 [14] was 32.4 µM (inactive) and the GI50 [15] was 34.8 µM (inactive). The GI50 [16] was > 100 µM (inactive), the GI50 [17] was 29.1 µM (inactive) and the GI50 [18] was 38.2 µM (inactive). The GI50 [19] was 39.3 µM (inactive).
With `CN(C)CCCN1c2ccc(O)cc2Sc2ccc(Cl)cc21` [7-HYDROXYCHLORPROMAZINE] the GI50 [1] was 9.86 µM (inactive), the GI50 [2] was 10.5 µM (inactive) and the GI50 [3] was 11.3 µM (inactive). For the same molecule, the GI50 [4] was 6.3 µM (inactive), the GI50 [5] was 3.86 µM (inactive) and the GI50 [6] was 17.7 µM (inactive). For the same molecule, the GI50 [7] was 12.3 µM (inactive), the GI50 [8] was 16 µM (inactive) and the GI50 [9] was 11.1 µM (inactive). The GI50 [10] was 0.859 µM (active), the GI50 [11] was 4.25 µM (inactive) and the GI50 [12] was 12.4 µM (inactive). The GI50 [13] was 8.91 µM (inactive), the GI50 [14] was 15.3 µM (inactive) and the GI50 [15] was 13.5 µM (inactive). The GI50 [16] was 12.5 µM (inactive), the GI50 [17] was 9.91 µM (inactive) and the GI50 [18] was 14.7 µM (inactive). The GI50 [19] was 8.63 µM (inactive).
